# “And” between values parts separate entries of the source, which are not always exact repeats. Equal values may be shown once. Read-outs that look alike come from different tables or passages of the source.
# Columns and labels:
# [1] = format: in vivo, human; conditions: for Tmax / AUC / clearance / Cmax / Vd / half-life: human, plasma, iv; for AUC: AUC0‐t; for AUC / clearance / Cmax / Vd / half-life: ESRD subjects, single 0.5 mg IV; for AUC / Cmax: dose-normalized to 1 mg; for clearance: CL; for Vd: Vz; for half-life: t½
# [2] = format: in vivo, human; conditions: for AUC / clearance / Cmax / Vd / half-life: 0.5 mg, single 0.5 mg IV; for AUC: AUC0‐t; for AUC / Cmax: dose-normalized to 1 mg; for clearance: CL; for Vd: Vz; for half-life: t½
# [3] = Renal impairment study: safety and tolerability; format: in vivo, human
# [4] = Hepatic impairment study: safety and tolerability; format: in vivo, human
# [5] = remainder eliminated in the feces; cited from earlier work
# [6] = human plasma; cited from earlier work
# [7] = ESRD subjects/healthy subjects, ANCOVA
# [8] = ESRD subjects/healthy subjects, ANCOVA, dose-adjusted
# [9] = human, plasma, iv, arithmetic mean ± SD, mild hepatic impairment
# [10] = human, plasma, iv, arithmetic mean ± SD, moderate hepatic impairment
# [11] = human, plasma, iv, arithmetic mean ± SD, severe hepatic impairment
# [12] = human, plasma, iv, geometric mean (%CVb), severe hepatic impairment
# [13] = human, plasma, iv, geometric mean (%CVb), mild hepatic impairment
# [14] = human, plasma, iv, geometric mean (%CVb), moderate hepatic impairment
# [15] = mild hepatic impairment, 0.5 mg IV, 10 subjects
# [16] = moderate hepatic impairment, 0.5 mg IV, 10 subjects
# [17] = severe hepatic impairment, 0.5 mg IV, 6 subjects
structure (smiles),measurement,setting,value
COc1ccsc1CNCC[C@@]1(c2ccccn2)CCOC2(CCCC2)C1 [Oliceridine],"CL, ratio of geometric means",[1]; [7],81.2
same,"t½, ratio of geometric means",[1]; [7],128
same,"AUC0‐t, ratio of geometric means",[1]; [8],108
same,"AUC0‐∞, ratio of geometric means",[1]; [8],123
same,"Cmax, ratio of geometric means",[1]; [8],113
same,Tmax,[1]; 0.5 mg,0.25 h
same,AUC,"[1]; 0.5 mg, arithmetic mean (SD)",19.7 ng·h/mL
same,AUC,"[1]; 0.5 mg, geometric mean (%CVb)",19.1 ng·h/mL
same,clearance,"[1]; 0.5 mg, arithmetic mean (SD)",847 mL/min
same,clearance,"[1]; 0.5 mg, geometric mean (%CVb)",820 mL/min
same,Cmax,"[1]; 0.5 mg, arithmetic mean (SD)",9.96 ng/mL
same,Cmax,"[1]; 0.5 mg, geometric mean (%CVb)",9.87 ng/mL
same,Vd,"[1]; 0.5 mg, arithmetic mean (SD)",219 L
same,Vd,"[1]; 0.5 mg, geometric mean (%CVb)",212 L
same,half-life,"[1]; 0.5 mg, arithmetic mean (SD)",3.11 h
same,half-life,"[1]; 0.5 mg, geometric mean (%CVb)",2.99 h
same,Tmax,[1]; 1 mg,0.25 h
same,"CL, GM ratio Mild:Healthy (90%CI)",[2]; ANOVA,"1.05 (0.77, 1.43)"
same,"CL, GM ratio Moderate:Healthy (90%CI)",[2]; ANOVA,"0.80 (0.59, 1.09)"
same,"CL, GM ratio Severe:Healthy (90%CI)",[2]; ANOVA,"0.99 (0.71, 1.38)"
same,"t½, GM ratio Mild:Healthy (90%CI)",[2]; ANOVA,"1.26 (0.96, 1.66)"
same,"t½, GM ratio Moderate:Healthy (90%CI)",[2]; ANOVA,"2.09 (1.59, 2.75)"
same,"AUC0‐t, GM ratio Mild:Healthy (90%CI)","[2]; dose-normalized, ANOVA","0.93 (0.68, 1.28)"
same,"AUC0‐∞, GM ratio Mild:Healthy (90%CI)","[2]; dose-normalized, ANOVA","0.95 (0.70, 1.29)"
same,"AUC0‐∞, GM ratio Moderate:Healthy (90%CI)","[2]; dose-normalized, ANOVA","1.25 (0.92, 1.70)"
same,"AUC0‐∞, GM ratio Severe:Healthy (90%CI)","[2]; dose-normalized, ANOVA","1.01 (0.72, 1.41)"
same,"Cmax, GM ratio Mild:Healthy (90%CI)","[2]; dose-normalized, ANOVA","1.19 (0.54, 2.60)"
same,"Cmax, GM ratio Moderate:Healthy (90%CI)","[2]; dose-normalized, ANOVA","1.20 (0.55, 2.62)"
same,"Cmax, GM ratio Severe:Healthy (90%CI)","[2]; dose-normalized, ANOVA","0.24 (0.10, 0.56)"
same,AUC,[2]; [9],23.3 ± 7.9 ng·h/mL
same,AUC,[2]; [10],29.9 ± 11.3 ng·h/mL
same,AUC,[2]; [11],23.4 ± 10.3 ng·h/mL
same,AUC,[2]; [12],21.8 ng·h/mL
same,clearance,[2]; [9],807 mL/min
same,clearance,[2]; [10],595 mL/min
same,clearance,[2]; [11],738 mL/min
same,clearance,[2]; [13],742 mL/min
same,clearance,[2]; [14],565 mL/min
same,clearance,[2]; [12],697 mL/min
same,Cmax,[2]; [9],62.3 ± 48.8 ng/mL
same,Cmax,[2]; [10],46.6 ± 19.4 ng/mL
same,Cmax,[2]; [11],11.9 ± 10.6 ng/mL
same,Cmax,[2]; [13],41.4 ng/mL
same,Cmax,[2]; [14],41.9 ng/mL
same,Cmax,[2]; [12],8.4 ng/mL
same,Vd,[2]; [9],181 ± 81.2 L
same,Vd,[2]; [10],215 ± 39.1 L
same,Vd,[2]; [11],370 ± 130 L
same,Vd,[2]; [13],167 L
same,Vd,[2]; [14],212 L
same,Vd,[2]; [12],348 L
same,half-life,[2]; [9],2.7 ± 0.53 h
same,half-life,[2]; [10],4.7 ± 2.1 h
same,half-life,[2]; [11],6.3 ± 2.6 h
same,half-life,[2]; [13],2.6 h
same,half-life,[2]; [14],4.3 h
same,half-life,[2]; [12],5.8 h
same,AUC(0-t),"[2]; human, plasma, iv, 1 mg",24.1 ± 7.5 ng·h/mL
same,"At least 1 TEAE, no. of events","[3]; ESRD, 0.5 mg IV, 9 subjects",2 no. of events
same,"Dizziness, subjects","[3]; ESRD, 0.5 mg IV, 9 subjects",0
same,"Euphoria, subjects","[3]; ESRD, 0.5 mg IV, 9 subjects",0
same,"Fatigue, no. of events","[3]; ESRD, 0.5 mg IV, 9 subjects",1 no. of events
same,"Fatigue, subjects","[3]; ESRD, 0.5 mg IV, 9 subjects",1 (11%) n (%)
same,"Feeling of relaxation, subjects","[3]; ESRD, 0.5 mg IV, 9 subjects",0
same,"Headache, subjects","[3]; ESRD, 0.5 mg IV, 9 subjects",0
same,"Nausea, no. of events","[3]; ESRD, 0.5 mg IV, 9 subjects",1 no. of events
same,"Nausea, subjects","[3]; ESRD, 0.5 mg IV, 9 subjects",1 (11%) n (%)
same,"Pain in extremity, subjects","[3]; ESRD, 0.5 mg IV, 9 subjects",0
same,Subjects with TEAEs by maximum severity: Mild,"[3]; ESRD, 0.5 mg IV, 9 subjects",2 (22%) n (%)
same,Subjects with TEAEs by maximum severity: Moderate,"[3]; ESRD, 0.5 mg IV, 9 subjects",0
same,Subjects with TEAEs by maximum severity: Severe,"[3]; ESRD, 0.5 mg IV, 9 subjects",0
same,Subjects with at least 1 TEAE,"[3]; ESRD, 0.5 mg IV, 9 subjects",2 (22%) n (%)
same,"TEAEs by maximum severity: Mild, no. of events","[3]; ESRD, 0.5 mg IV, 9 subjects",2 no. of events
same,"Total number of mild TEAEs, overall",[3]; all 17 subjects of the renal study,11
same,"Subjects who experienced TEAEs, overall",[3]; all subjects of the renal study (6 of 17),35.3%
same,"Dizziness, no. of events","[3]; healthy, 1 mg IV, 8 subjects",1 no. of events
same,"Dizziness, subjects","[3]; healthy, 1 mg IV, 8 subjects",1 (12.5%) n (%)
same,"Euphoria, no. of events","[3]; healthy, 1 mg IV, 8 subjects",2 no. of events
same,"Euphoria, subjects","[3]; healthy, 1 mg IV, 8 subjects",2 (25%) n (%)
same,"Fatigue, no. of events","[3]; healthy, 1 mg IV, 8 subjects",2 no. of events
same,"Fatigue, subjects","[3]; healthy, 1 mg IV, 8 subjects",2 (25%) n (%)
same,"Feeling of relaxation, no. of events","[3]; healthy, 1 mg IV, 8 subjects",1 no. of events
same,"Feeling of relaxation, subjects","[3]; healthy, 1 mg IV, 8 subjects",1 (12.5%) n (%)
same,"Headache, no. of events","[3]; healthy, 1 mg IV, 8 subjects",1 no. of events
same,"Headache, subjects","[3]; healthy, 1 mg IV, 8 subjects",1 (12.5%) n (%)
same,"Nausea, no. of events","[3]; healthy, 1 mg IV, 8 subjects",3 no. of events
same,"Nausea, subjects","[3]; healthy, 1 mg IV, 8 subjects",2 (25%) n (%)
same,"Pain in extremity, no. of events","[3]; healthy, 1 mg IV, 8 subjects",1 no. of events
same,"Pain in extremity, subjects","[3]; healthy, 1 mg IV, 8 subjects",1 (12.5%) n (%)
same,Subjects with TEAEs by maximum severity: Mild,"[3]; healthy, 1 mg IV, 8 subjects",4 (50%) n (%)
same,Subjects with TEAEs by maximum severity: Moderate,"[3]; healthy, 1 mg IV, 8 subjects",0
same,Subjects with TEAEs by maximum severity: Severe,"[3]; healthy, 1 mg IV, 8 subjects",0
same,"TEAEs by maximum severity: Mild, no. of events","[3]; healthy, 1 mg IV, 8 subjects",9 no. of events
same,"At least 1 TEAE, no. of events","[4]; healthy, 1 mg IV, 8 subjects",0 no. of events
same,"Somnolence, no. of events","[4]; healthy, 1 mg IV, 8 subjects",0 no. of events
same,"Somnolence, subjects","[4]; healthy, 1 mg IV, 8 subjects",0 (0%) n (%)
same,Subjects with TEAEs by maximum severity: Mild,"[4]; healthy, 1 mg IV, 8 subjects",0 (0%) n (%)
same,Subjects with TEAEs by maximum severity: Moderate,"[4]; healthy, 1 mg IV, 8 subjects",0
same,Subjects with TEAEs by maximum severity: Severe,"[4]; healthy, 1 mg IV, 8 subjects",0
same,Subjects with at least 1 TEAE,"[4]; healthy, 1 mg IV, 8 subjects",0 (0%) n (%)
same,"TEAEs by maximum severity: Mild, no. of events","[4]; healthy, 1 mg IV, 8 subjects",0 no. of events
same,Duration of somnolence TEAEs,"[4]; mild hepatic impairment group, mild intensity, resolved completely",approximately 1 hour
same,"At least 1 TEAE, no. of events",[4]; [15],2 no. of events
same,"Somnolence, no. of events",[4]; [15],2 no. of events
same,"Somnolence, subjects",[4]; [15],2 n (%) and 2 (20%) n (%)
same,Subjects with TEAEs by maximum severity: Mild,[4]; [15],2 (20%) n (%)
same,Subjects with TEAEs by maximum severity: Moderate,[4]; [15],0
same,Subjects with TEAEs by maximum severity: Severe,[4]; [15],0
same,Subjects with at least 1 TEAE,[4]; [15],2 (20%) n (%)
same,"TEAEs by maximum severity: Mild, no. of events",[4]; [15],2 no. of events
same,"At least 1 TEAE, no. of events",[4]; [16],0 no. of events
same,"Somnolence, no. of events",[4]; [16],0 no. of events
same,"Somnolence, subjects",[4]; [16],0 (0%) n (%)
same,Subjects with TEAEs by maximum severity: Mild,[4]; [16],0 (0%) n (%)
same,Subjects with TEAEs by maximum severity: Moderate,[4]; [16],0
same,Subjects with TEAEs by maximum severity: Severe,[4]; [16],0
same,Subjects with at least 1 TEAE,[4]; [16],0 (0%) n (%)
same,"TEAEs by maximum severity: Mild, no. of events",[4]; [16],0 no. of events
same,"At least 1 TEAE, no. of events",[4]; [17],0 no. of events
same,"Somnolence, no. of events",[4]; [17],0 no. of events
same,"Somnolence, subjects",[4]; [17],0 (0%) n (%)
same,Subjects with TEAEs by maximum severity: Mild,[4]; [17],0 (0%) n (%)
same,Subjects with TEAEs by maximum severity: Moderate,[4]; [17],0
same,Subjects with TEAEs by maximum severity: Severe,[4]; [17],0
same,Subjects with at least 1 TEAE,[4]; [17],0 (0%) n (%)
same,"TEAEs by maximum severity: Mild, no. of events",[4]; [17],0 no. of events
same,Share of the metabolites eliminated in the urine,[5],Approximately 70%
same,Free fraction,[6],23%

# Reference: paper PMC7383509 (Clinical Pharmacology in Drug Development, 2019)
